# Data: patent publication US9302999B2, “Substituted triazoles as herbicides” (E. I. DU PONT DE NEMOURS AND COMPANY, priority 2012, dated 2016)
# What was measured:
# Assay type in all cases: in vivo
# [1] = test system: large crabgrass (Digitaria sanguinalis); assay: Test C pre-/postemergence: large crabgrass
# In short: (§1)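 Preemergence on seeds in loam/sand, postemergence on 2–18 cm (1–4-leaf) plants in peat-based medium; compounds in non-phytotoxic solvent with surfactant. After 13–15 days in greenhouse, visual rating versus controls, 0 (no effect) to 100 (complete control).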
# [2] = test system: foxtail, giant (giant foxtail, Setaria faberii); assay: Test A pre-/postemergence: foxtail, giant; conditions: for Foxtail, Giant plant response rating: Postemergence; for Plant response rating, Foxtail, Giant: Preemergence
# In short: (§2)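 Seeds were sown in loam/sand blend and sprayed preemergence (directed soil spray) and, simultaneously, postemergence at 2–10 cm, one- to two-leaf stage, using compounds in non-phytotoxic solvent with surfactant. After ~10 days in greenhouse, injury was rated visually versus untreated controls, 0 (no effect) to 100 (complete control).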
# [3] = test system: wild oat (Avena fatua); assay: Test C pre-/postemergence: wild oat
# Excerpt: (§3) Seeds of plant species selected from blackgrass (Alopecurus myosuroides), bromegrass, downy (downy bromegrass, Bromus tectorum), foxtail, green (green foxtail, Setaria viridis), ryegrass, Italian (Italian ryegrass, Lolium multiflorum), winter wheat (Triticum aestivum), wild oat (Avena fatua), galium (catchweed bedstraw, Galium aparine), bermudagrass (Cynodon dactylon), surinam grass (Brachiaria decumbens), cocklebur (common cocklebur, Xanthium strumarium), corn (Zea mays), large crabgrass (Digitaria sanguinalis), woolly cupgrass (Eriochloa villosa), foxtail, giant (giant foxtail, Setaria faberii), goosegrass (Eleusine indica), johnsongrass (Sorghum halepense), kochia (Kochia scoparia), lambsquarters (Chenopodium album), morningglory (Ipomoea coccinea), nightshade (eastern black nightshade, Solanum ptycanthum), nutsedge, yellow (yellow nutsedge, Cyperus esculentus), pigweed (Amaranthus retroflexus), ragweed (common ragweed, Ambrosia elation), soybean (Glycine max), common (oilseed) sunflower (Helianthus annuus), Russian thistle (Salsola kali) and velvetleaf (Abutilon theophrasti) were planted into a blend of loam soil and sand and treated preemergence with test chemicals formulated in a non-phytotoxic solvent mixture which included a surfactant.
# (§4) At the same time, plants selected from these crop and weed species and also barley (winter barley, Hordeum vulgare), canarygrass (Phalaris minor), chickweed (common chickweed, Stellaria media) windgrass (Apera spica-venti) and deadnettle (henbit deadnettle, Lamium amplexicaule) were planted in pots containing Redi-Earth® planting medium (Scotts Company, 14111 Scottslawn Road, Marysville, Ohio 43041) comprising spaghnum peat moss, vermiculite, wetting agent and starter nutrients and treated with postemergence applications of test chemicals formulated in the same manner. Plants ranged in height from 2 to 18 cm (1- to 4-leaf stage) for postemergence treatments.
# (§5) Treated plants and controls were maintained in a greenhouse for 13 to 15 days, after which time all species were compared to controls and visually evaluated. Plant response ratings, summarized in Table C, are based on a scale of 0 to 100 where 0 is no effect and 100 is complete control. A dash (-) response means no test result.
# [4] = test system: barnyardgrass (Echinochloa crus-galli); assay: Test A pre-/postemergence: barnyardgrass; conditions: for Barnyardgrass plant response rating: Postemergence; for Plant response rating, Barnyardgrass: Preemergence
# In short: as §2
# [5] = test system: soybean (Glycine max); assay: Test C pre-/postemergence: soybean
# In short: as §1
# [6] = test system: blackgrass (Alopecurus myosuroides); assay: Test C pre-/postemergence: blackgrass
# In short: as §1
# [7] = test system: johnsongrass (Sorghum halepense); assay: Test C pre-/postemergence: johnsongrass
# In short: as §1
# [8] = test system: nutsedge, yellow (yellow nutsedge, Cyperus esculentus); assay: Test C pre-/postemergence: nutsedge, yellow
# Excerpt: as §3, §4, §5
# [9] = test system: crabgrass, large (large crabgrass, Digitaria sanguinalis); assay: Test A pre-/postemergence: crabgrass, large; conditions: for Crabgrass, Large plant response rating: Postemergence; for Plant response rating, Crabgrass, Large: Preemergence
# In short: as §2
# [10] = test system: ragweed (common ragweed, Ambrosia elation); assay: Test C pre-/postemergence: ragweed
# Excerpt: as §3, §4, §5
# [11] = test system: winter wheat (Triticum aestivum); assay: Test C pre-/postemergence: winter wheat
# In short: as §1
# [12] = test system: corn (Zea mays); assay: Test C pre-/postemergence: corn
# Excerpt: as §3, §4, §5
# [13] = Postemergence, 31 g ai/ha, scale 0 to 100 (0 no effect, 100 complete control)
# [14] = Postemergence, 62 g ai/ha, scale 0 to 100 (0 no effect, 100 complete control)
# [15] = Postemergence, 125 g ai/ha, scale 0 to 100, 0 no effect, 100 complete control
# [16] = Postemergence, 250 g ai/ha, scale 0 to 100
# [17] = 125 g ai/ha, 0 to 100 scale, 0 is no effect, 100 is complete control
# [18] = 500 g ai/ha, visual rating on 0 to 100 scale (0 no effect, 100 complete control), approximately ten days
# [19] = 125 g ai/ha, 0 to 100 scale where 0 is no effect and 100 is complete control
# [20] = 500 g ai/ha, 0 to 100 scale (0 no effect, 100 complete control)
# [21] = Preemergence, 31 g ai/ha, scale of 0 to 100, 0 is no effect, 100 is complete control
# [22] = Preemergence, 62 g ai/ha, scale of 0 to 100, 0 is no effect, 100 is complete control
# [23] = Preemergence, 125 g ai/ha, scale 0 to 100, 0 no effect, 100 complete control
# [24] = Preemergence, 250 g ai/ha, scale 0 to 100, 0 no effect, 100 complete control
smiles,measurement,setting,value
Cc1nn(-c2ccnc(C(F)(F)F)c2)nc1Cc1ccnc(C(F)(F)F)c1 [Compound 137],"Plant response rating, Crabgrass, Large",[1]; [13],15
same,"Plant response rating, Crabgrass, Large",[1]; [14],40
same,"Plant response rating, Crabgrass, Large",[1]; [15],40
same,"Plant response rating, Crabgrass, Large",[1]; [16],65
same,"Foxtail, Giant plant response rating",[2]; [17],90
same,"Foxtail, Giant plant response rating",[2]; [18],90
same,"Plant response rating, Foxtail, Giant",[2]; [19],90
same,"Plant response rating, Foxtail, Giant",[2]; [20],90
same,"Plant response rating, Oat, Wild",[3]; [13],45
same,"Plant response rating, Oat, Wild",[3]; [14],50
same,"Plant response rating, Oat, Wild",[3]; [15],50
same,"Plant response rating, Oat, Wild",[3]; [16],70
same,Barnyardgrass plant response rating,[4]; [17],70
same,Barnyardgrass plant response rating,[4]; [18],90
same,"Plant response rating, Barnyardgrass",[4]; [19],50
same,"Plant response rating, Barnyardgrass",[4]; [20],70
same,"Plant response rating, Soybean",[5]; [13],40
same,"Plant response rating, Soybean",[5]; [14],55
same,"Plant response rating, Soybean",[5]; [15],55
same,"Plant response rating, Soybean",[5]; [16],60
same,"Plant response rating, Blackgrass",[6]; [13],10
same,"Plant response rating, Blackgrass",[6]; [14],30
same,"Plant response rating, Blackgrass",[6]; [15],35
same,"Plant response rating, Blackgrass",[6]; [16],60
same,"Plant response rating, Johnsongrass",[7]; [13],5
same,"Plant response rating, Johnsongrass",[7]; [14],40
same,"Plant response rating, Johnsongrass",[7]; [15],80
same,"Plant response rating, Johnsongrass",[7]; [16],90
same,"Plant response rating, Nutsedge, Yellow",[8]; [13],5
same,"Plant response rating, Nutsedge, Yellow",[8]; [14],10
same,"Plant response rating, Nutsedge, Yellow",[8]; [15],10
same,"Plant response rating, Nutsedge, Yellow",[8]; [16],15
same,"Crabgrass, Large plant response rating",[9]; [17],90
same,"Crabgrass, Large plant response rating",[9]; [18],90
same,"Plant response rating, Crabgrass, Large",[9]; [19],90
same,"Plant response rating, Crabgrass, Large",[9]; [20],90
same,"Plant response rating, Ragweed",[10]; [13],65
same,"Plant response rating, Ragweed",[10]; [15],75
same,"Plant response rating, Ragweed",[10]; [16],85
same,"Plant response rating, Wheat",[11]; [13],10
same,"Plant response rating, Wheat",[11]; [14],15
same,"Plant response rating, Wheat",[11]; [15],30
same,"Plant response rating, Wheat",[11]; [16],35
Fc1ccc(-n2nc(Cc3ccnc(C(F)(F)F)c3)c(OCC(F)(F)F)n2)cc1 [Compound 142],"Plant response rating, Crabgrass, Large",[1]; [13],65
same,"Plant response rating, Crabgrass, Large",[1]; [14],80
same,"Plant response rating, Crabgrass, Large",[1]; [15],95
same,"Plant response rating, Crabgrass, Large",[1]; [16],95
same,"Plant response rating, Crabgrass, Large",[1]; [21],100
same,"Plant response rating, Crabgrass, Large",[1]; [22],100
same,"Plant response rating, Crabgrass, Large",[1]; [23],100
same,"Plant response rating, Crabgrass, Large",[1]; [24],100
same,"Foxtail, Giant plant response rating",[2]; [17],100
same,"Foxtail, Giant plant response rating",[2]; [18],100
same,"Plant response rating, Foxtail, Giant",[2]; [19],100
same,"Plant response rating, Foxtail, Giant",[2]; [20],100
same,"Plant response rating, Oat, Wild",[3]; [13],35
same,"Plant response rating, Oat, Wild",[3]; [14],45
same,"Plant response rating, Oat, Wild",[3]; [15],70
same,"Plant response rating, Oat, Wild",[3]; [16],70
same,"Plant response rating, Oat, Wild",[3]; [21],85
same,"Plant response rating, Oat, Wild",[3]; [22],85
same,"Plant response rating, Oat, Wild",[3]; [23],85
same,"Plant response rating, Oat, Wild",[3]; [24],90
same,Barnyardgrass plant response rating,[4]; [17],100
same,Barnyardgrass plant response rating,[4]; [18],100
same,"Plant response rating, Barnyardgrass",[4]; [19],100
same,"Plant response rating, Barnyardgrass",[4]; [20],100
same,"Plant response rating, Soybean",[5]; [13],50
same,"Plant response rating, Soybean",[5]; [14],55
same,"Plant response rating, Soybean",[5]; [15],55
same,"Plant response rating, Soybean",[5]; [16],55
same,"Plant response rating, Soybean",[5]; [21],0
same,"Plant response rating, Soybean",[5]; [22],5
same,"Plant response rating, Soybean",[5]; [23],5
same,"Plant response rating, Soybean",[5]; [24],20
same,"Plant response rating, Blackgrass",[6]; [13],55
same,"Plant response rating, Blackgrass",[6]; [14],60
same,"Plant response rating, Blackgrass",[6]; [15],80
same,"Plant response rating, Blackgrass",[6]; [16],90
same,"Plant response rating, Blackgrass",[6]; [21],90
same,"Plant response rating, Blackgrass",[6]; [22],90
same,"Plant response rating, Blackgrass",[6]; [23],90
same,"Plant response rating, Blackgrass",[6]; [24],90
same,"Plant response rating, Johnsongrass",[7]; [13],55
same,"Plant response rating, Johnsongrass",[7]; [14],70
same,"Plant response rating, Johnsongrass",[7]; [15],80
same,"Plant response rating, Johnsongrass",[7]; [16],80
same,"Plant response rating, Johnsongrass",[7]; [21],90
same,"Plant response rating, Johnsongrass",[7]; [22],98
same,"Plant response rating, Johnsongrass",[7]; [23],100
same,"Plant response rating, Johnsongrass",[7]; [24],100
same,"Plant response rating, Nutsedge, Yellow",[8]; [13],5
same,"Plant response rating, Nutsedge, Yellow",[8]; [14],5
same,"Plant response rating, Nutsedge, Yellow",[8]; [15],15
same,"Plant response rating, Nutsedge, Yellow",[8]; [16],20
same,"Plant response rating, Nutsedge, Yellow",[8]; [21],0
same,"Plant response rating, Nutsedge, Yellow",[8]; [23],0
same,"Plant response rating, Nutsedge, Yellow",[8]; [24],0
same,"Crabgrass, Large plant response rating",[9]; [17],100
same,"Crabgrass, Large plant response rating",[9]; [18],100
same,"Plant response rating, Crabgrass, Large",[9]; [19],100
same,"Plant response rating, Crabgrass, Large",[9]; [20],100
same,"Plant response rating, Ragweed",[10]; [13],65
same,"Plant response rating, Ragweed",[10]; [14],70
same,"Plant response rating, Ragweed",[10]; [15],75
same,"Plant response rating, Ragweed",[10]; [16],75
same,"Plant response rating, Ragweed",[10]; [21],40
same,"Plant response rating, Ragweed",[10]; [22],40
same,"Plant response rating, Ragweed",[10]; [23],70
same,"Plant response rating, Ragweed",[10]; [24],80
same,"Plant response rating, Wheat",[11]; [13],15
same,"Plant response rating, Wheat",[11]; [14],25
same,"Plant response rating, Wheat",[11]; [15],40
same,"Plant response rating, Wheat",[11]; [16],45
same,"Plant response rating, Wheat",[11]; [22],5
same,"Plant response rating, Wheat",[11]; [23],35
same,"Plant response rating, Wheat",[11]; [24],50
same,"Plant response rating, Corn",[12]; [13],30
same,"Plant response rating, Corn",[12]; [14],35
same,"Plant response rating, Corn",[12]; [15],35
same,"Plant response rating, Corn",[12]; [16],45
same,"Plant response rating, Corn",[12]; [21],0
same,"Plant response rating, Corn",[12]; [22],5
same,"Plant response rating, Corn",[12]; [23],20
same,"Plant response rating, Corn",[12]; [24],30
